In paper PMC3916416, “Recombinant Human Parathyroid Hormone Related Protein 1-34 and 1-84 and Their Roles in Osteoporosis Treatment” (PLoS ONE, 2014):

Experiments:
[1] = tested on: Cbfa-1, ALP, Col I, OCN mRNA in primary BMC; experiment: Real-time RT-PCR of osteogenic genes in 14-day primary BMC cultures; type: cell-based, rat; conditions: 10^-7 M, ratio to GAPDH, compared with control cultures, three trials
Description: (§1) Tibiae and femurs of 200-g male Wistar rats were removed under aseptic conditions, and bone marrow cells (BMC) were flushed out with Dulbecco's modified Eagle's minimal essential medium containing 10% fetal calf serum, 50 µg/ml ascorbic acid, 10 mM β-glycerophosphate, and 10^−8 M dexamethasone. Cells were dispersed by repeated pipetting, and a single-cell suspension was achieved by forcefully expelling the cells through a 22-gauge syringe needle. 10^6 total bone marrow cells were cultured in 36-cm^2 Petri dishes in 5 ml of the above-mentioned medium. All the dishes were assigned to three different groups. Each of the group treated with vehicle (Control), 10^−7 M hPTHrP1-34 or 10^−7 M hPTHrP1-84. The medium was changed every 4 days. The non-adherent cells containing hematopoietic elements were removed by pipetting gently when the medium was changed for the first time. Only monocytic cells remained. Cultures were maintained for 12–18 days. At the end of the culture period cells were stained cytochemically or RNA was extracted from these cells for RT-PCR as described below.
RNA was isolated from 14-day cultured cells using Trizol reagent (Invitrogen) according to the manufacturer's protocol. Femurs were isolated and weighted. Homogenize tissue samples in 1 ml of TRIzol reagent per 50–100 mg of tissue using mortar and pestle with liquid nitrogen. […]

[2] = tested on: Cbfa1, ALP, Col I, OCN, RANKL, OPG mRNA in long bone; experiment: Real-time RT-PCR of long bone extracts of OVX mice; type: in vivo, mouse; conditions: 10 nmol/kg s.c. daily for 4 weeks, n = 6
Description: (§2) Twenty four female C57BL/6J mice, 8 weeks age, were assigned to four different groups, with six mice per group. All mice were anesthetized with chloral hydrate (0.4 ml/100 g body weight) and subjected to surgery on day 0. Sham surgery was performed on the Sham group (Sham) by identifying the bilateral ovaries and ovariectomy (OVX) was performed on the other groups by removing the bilateral ovaries. After surgery, all mice were maintained in a virus- and parasite-free barrier facility and exposed to a 12-h/12-h light/dark cycle under standard conditions in the Medical Experimental Animal Center of Nanjing Medical University for 9 weeks. HPTHrP1–34 was subcutaneously administered at a dose of 10 nmol/kg (40 µg/kg) body weight everyday for the last 4 weeks. HPTHrP1–84 was subcutaneously administered at a dose of 10 nmol/kg (100 µg/kg) body weight everyday for the last 4 weeks. Each of the mice received vehicle (vehicle-treated sham-operated mice and vehicle-treated OVX mice), hPTHrP1-34 (hPTHrP1-34-treated OVX mice) or hPTHrP1-84 (hPTHrP1-84-treated OVX mice). At the end of experiments, all mice were sacrificed by exsanguination under chloral hydrate anesthesia and blood were collected for serum calcium, phosphorus and ALP analyses, bones and kidneys were then removed for the analyses described below.
RNA was isolated from 14-day cultured cells using Trizol reagent (Invitrogen) according to the manufacturer's protocol. Femurs were isolated and weighted. Homogenize tissue samples in 1 ml of TRIzol reagent per 50–100 mg of tissue using mortar and pestle with liquid nitrogen. After homogenization, remove insoluble material from the homogenate by centrifuging at 12,000 RPM for 10 min at 4°C. Transfer the top layer solution into a new tube. RNA of this solution was precipitated with isopropanol, washed with 75% ethanol and dissolved with DEPC water. Reverse transcription reactions were performed using the SuperScript First-Strand Synthesis System (Invitrogen) as previously described. […]

[3] = Serum calcium, phosphorus and ALP in OVX mice; type: in vivo, mouse; conditions: 10 nmol/kg s.c. daily for 4 weeks, versus vehicle-treated OVX mice, n = 6
Description: as §2, with “At the end of experiments, all mice were sacrificed by exsanguination under chloral hydrate anesthesia and blood were collected for serum calcium, phosphorus and ALP analyses, bones and kidneys were then removed for the analyses described below.” left out
Serum calcium, phosphorus and ALP were determined at 4 weeks after the administration of drugs by autoanalyzer (Beckman Synchron 67; Beckman Instruments).

[4] = tested on: primary bone marrow cells (BMC); experiment: Primary bone marrow cell culture, cytochemical colony (CFU-f) staining; type: cell-based, rat; conditions: 10^-7 M on day 0, 18-day primary BMC cultures, compared with control cultures; triplicate determinations, three experiments
Description: as §1, with “below. The cells from 18-day primary BMC cultures were washed with PBS and fixed by the addition of cold ethanol. […] The numbers of colonies were counted macroscopically by hand. […]” for “below.”

[5] = tested on: OVX mice (osteoporosis model); experiment: Osteoblastic bone formation parameters of vertebrae in OVX mice; type: in vivo, mouse; conditions: 10 nmol/kg s.c. daily for 4 weeks, compared to vehicle-treated sham-operated mice, n = 6
Description: as §2
Lumbar vertebrae or tibiae were removed and fixed in PLP fixative (2% paraformaldehyde containing 0.075 M lysine and 0.01 M sodium periodate solution) overnight at 4°C and processed histologically as described. Lumbar vertebrae were decalcified in ethylene-diamine tetraacetic acid (EDTA) glycerol solution for 5–7 days at 4°C. Decalcified samples were dehydrated and embedded in paraffin after which 5 µm sections were cut on a rotary microtome. […]
Double calcein labeling was performed by intraperitoneal injection of mice with 10 µg calcein/g body weight (C-0875, Sigma-Aldrich Corp., St. Louis, MO) at 10 and 3 day before death. […] Serial sections were cut, and the freshly cut surface of each section was viewed and imaged using fluorescence microscopy. The double calcein-labeled width of bone was measured using Northern Eclipse image analysis software version 6.0 (Empix Imaging, Inc., Mississauga, Canada), and the mineral apposition rate (MAR) was calculated as the interlabel width/labeling period.
(§3) After HE staining or histochemical staining of sections from six mice of each genotype, images of fields were photographed with a Sony digital camera. All images were digitally recorded using a rectangular template, and recordings were processed and analyzed using Northern Eclipse image analysis software as described, [26], [28].

[6] = Serum PTHrP analyses (ELISA) after subcutaneous injection; type: in vivo, mouse; conditions: OVX mice, 10 nmol/kg s.c.
Description: The OVX mice were injected with vehicle or 10 nmol/kg hPTHrP1-34 or 10 nmol/kg hPTHrP1-84 subcutaneously. Subsequently, blood samples were drawn at 15 and 30 minutes, 1, 2, 4 and 6 hours after the injections. Serum concentrations of hPTHrP1-34 or hPTHrP1-84 were measured by enzyme linked immunosorbent assay (ELISA) that used Phoenix Pharmaceuticals PTHrP(1-34)- EIA Kit (Phoenix Pharmaceuticals, USA). Procedures were performed according to the instructions of the kit.

[7] = tested on: OVX mice (osteoporosis model); experiment: Osteoclastic bone resorption (TRAP staining) in OVX mice; type: in vivo, mouse; conditions: 10 nmol/kg s.c. daily for 4 weeks, vertebrae, compared with vehicle-treated OVX mice, n = 6
Description: as §2, with “At the end of experiments, all mice were sacrificed by exsanguination under chloral hydrate anesthesia and blood were collected for serum calcium, phosphorus and ALP analyses, bones and kidneys were then removed for the analyses described below.” left out
as §3

[8] = tested on: renal calcium transporters (calbindin-D28K, calbindin-D9K, NCX1, TRPV5); experiment: Western blot of renal calcium transporters in OVX mice; type: in vivo, mouse; conditions: 10 nmol/kg s.c. daily for 4 weeks, relative to vehicle-treated sham-operated mice, n = 6
Description: as §2, with “At the end of experiments, all mice were sacrificed by exsanguination under chloral hydrate anesthesia and blood were collected for serum calcium, phosphorus and ALP analyses, bones and kidneys were then removed for the analyses described below.” left out
Purified hPTHrP1-34 and 1-84 and proteins extracted from kidney were quantitated by a kit (Bio-Rad, Mississauga, Ontario, Canada). […] Bands were visualized using ECL chemiluminescence (Amersham) and quantitated by Scion Image Beta 4.02 (Scion Corporation, NIH).

[9] = tested on: OVX mice (osteoporosis model); experiment: Bone volume of vertebrae in OVX mice (radiography, micro-CT, histology); type: in vivo, mouse; conditions: 10 nmol/kg s.c. daily for 4 weeks
Description: as §2
Thoracic vertebrae were removed and dissected free of soft tissue. […]
Thoracic vertebrae were fixed overnight in 70% ethanol and analyzed by micro-CT with a SkyScan 1072 scanner and associated analysis software (SkyScan, Antwerp, Belgium) as described. […]
Total collagen was detected in paraffin sections using a modified method of Lopez-De Leon and Rojkind. […]
as §3

[10] = tested on: placental calcium transport; conditions: cited from earlier work
From the text: It supports the concept that the mid-molecule region of PTHrP is functionally important in placental calcium transport. […] However, it is unclear whether there are some differences between PTHrP1-34 and 1-84 on renal calcium reabsorption and on bone formation. To answer this que ...

[11] = compared to vehicle-treated sham-operated mice
[12] = vertebrae, micro-CT and histology, compared to vehicle-treated OVX mice (hPTHrP1-84 also to hPTHrP1-34-treated), n = 6

## hPTHrP1-34: recombinant human parathyroid hormone related protein 1-34, expressed as GST fusion in E. coli BL21 and cleaved by thrombin
[1]
  gene expression levels of Cbfa-1, ALP, type I collagen (Col I) and osteocalcin (OCN): upregulated significantly
[2]; among vehicle-treated, hPTHrP1-34-treated and hPTHrP 1-84-treated OVX mice
  ratios of RANKL/OPG mRNA levels: no significant differences
[2]; [11]
  osteoblastic gene expression levels of Cbfa1, ALP: slightly up-regulated
  ratios of RANKL/OPG mRNA levels: increased significantly
[3]
  Serum mineral ion and ALP levels: no significant differences
[4]
  colony formation and osteogenic cell differentiation and mineralization: significant increase
[5]
  ALP positive area: increased
  MAR (mineral apposition rate): decreased
  osteoblast number: increased
  osteoid volume: not altered significantly
[6]; ELISA, read from the figure (Fig. 6e), approximate
  circulating t1/2: approximately 45 mins
[6]; ELISA, sampling 15 and 30 min, 1, 2, 4, 6 h, n = 6
  time at which plasma PTHrP levels declined to baseline levels: 2 h
[6]; single injection, PTHrP(1-34) EIA kit (ELISA), mean ± SEM, n = 6
  plasma PTHrP levels at 15 min after the administration: 9 ± 0.7 pM
[7]
  TRAP positive osteoclast number: did not further increase
  TRAP positive osteoclast surface: did not further increase
[8]
  protein levels of calbindin-D28K, calbindin-D9K, NCX1 and TRPV5 in the kidney: down-regulated
[9]; radiography, compared to vehicle-treated sham-operated mice
  radiolucency in vertebrae: increased
[9]; [12]
  cortical thickness: not altered significantly
  trabecular bone volume: not altered significantly

## synthetic PTHrP1-34: synthetic PTHrP1-34 of the literature study on placental calcium transfer (ref 18)
[10]
  placental calcium transfer: no such effect
